The test deals with T1, cellular retinol-binding protein (CRBP) (Rattus norvegicus, UniProt P02696).
T1 construct: portions of rat testes cytosol (1 mg protein) were incubated; from tissue; host or cells: rat testes cytosol
T1 sequence (P02696 1-135): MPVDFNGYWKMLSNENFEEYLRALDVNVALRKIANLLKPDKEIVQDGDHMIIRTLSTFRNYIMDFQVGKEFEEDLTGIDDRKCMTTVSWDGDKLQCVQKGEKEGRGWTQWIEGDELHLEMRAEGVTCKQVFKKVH
The test can be described thus: Binding to cellular retinol-binding protein (CRBP): inhibition of [3H]retinol binding, sucrose density-gradient sedimentation. Conditions: for Percent Inhibition of [3H] Retinol Binding (CRBP Assay): 150-fold molar excess of unlabelled test retinoid, rat testes cytosol. As to the method: Binding affinities of the retinyl ethers for CRBP were determined by sucrose, density-gradient, sedimentation analysis as described before (Sani et al., 1980). Briefly, portions of rat testes cytosol (1 mg protein) were incubated with [^3 H]retinol (50 pmol) in the presence or absence of a 150-fold molar excess of unlabeled retinol or the test retinoids. The preparations after dialysis were analyzed by 5-20% sucrose density gradient sedimentation. For measuring the competitive binding of the unlabeled retinoids, inhibition of [^3 H]retinol binding to CRBP by unlabeled retinol is regarded as 100%. The mean and standard deviation calculated from the relative inhibitions obtained from multiple determinations were used as the relative binding affinities of the various retinyl ethers.
The group of retinyl benzyl ethers has now been evaluated for binding to CRBP. Binding to CRBP, as defined for Table I, at approximately 60% or higher was rated as strong; at 40-60%, as moderate; at 20-40%, as low.
^a Per cent inhibition of binding of tritiated retinol to CRBP by a
150-fold molar excess of the unlabelled test retinoid (Sani et al., 1980,

“Also recorded” adds a separate entry of the source.

For `CC1=C(/C=C/C(C)=C/C=C/C(C)=C/COCc2ccccc2)C(C)(C)CCC1` [Compound 3d, Retinyl Benzyl Ether], the “Percent Inhibition of [3H] Retinol Binding (CRBP Assay)” value (“Percent Inhibition” below) stood at 5 ± 5%. For the setting “150-fold molar excess”, the “binding to CRBP, in words” value was “not conducive to CRBP binding; also recorded: does not bind significantly to CRBP”.

Take `COc1cccc(COC/C=C(C)/C=C/C=C(C)/C=C/C2=C(C)CCCC2(C)C)c1` [Compound 3f, Retinyl 3-Methoxy Benzyl Ether]: the “Percent Inhibition” value amounted to 20 ± 5%. For the same compound, the “binding to CRBP, in words” value (150-fold molar excess) is given as “modest, but significant, binding affinity”. For `CC1=C(/C=C/C(C)=C/C=C/C(C)=C/COCc2ccc(C)cc2)C(C)(C)CCC1` [Compound 3g, Retinyl 4-Methylbenzyl Ether], in that order: 0% and “not conducive to CRBP binding”. For the compound `COc1ccc(COC/C=C(C)/C=C/C=C(C)/C=C/C2=C(C)CCCC2(C)C)c(OC)c1OC` [Compound 3i, Retinyl 2,3,4-Trimethoxybenzyl Ether], the “Percent Inhibition” value was found to be 5 ± 5%. Take `CC1=C(/C=C/C(C)=C/C=C/C(C)=C/COCc2c(C)cc(C)cc2C)C(C)(C)CCC1` [Compound 3j, Retinyl 2,4,6-Trimethylbenzyl Ether]: the “Percent Inhibition” value was determined as 7 ± 6%. For the compound `CC1=C(/C=C/C(C)=C/C=C/C(C)=C/COCc2ccc(Cl)cc2Cl)C(C)(C)CCC1` [Compound 3k, Retinyl 2,4-Dichlorobenzyl Ether], the “Percent Inhibition” value stood at 0%. Still for that read-out and setting: next, `CC1=C(/C=C/C(C)=C/C=C/C(C)=C/COCc2c(Cl)cccc2Cl)C(C)(C)CCC1` [Compound 3l, Retinyl 2,6-Dichlorobenzyl Ether]: 40 ± 5%. For the compound `CC1=C(/C=C/C(C)=C/C=C/C(C)=C/COC(C)c2ccccc2)C(C)(C)CCC1` (stereo not drawn) [Compound 3m, Retinyl α-Methylbenzyl Ether], the “Percent Inhibition” value came out at 60 ± 0%. Also, for the setting “150-fold molar excess”, the “Binding to CRBP, rating” value is “strong binding”.

The values are drawn from patent US6281250A, “Retinyl ethers, derivatives and analogues and inhibition of breast carcinogenesis” (Southern Research Institute, priority 1999, dated 2001).
